How the values were obtained:
[1] = in vivo; conditions: C57BL/6, mouse, brain/plasma, sc, 0.01 mg/kg
[2] = in vivo; conditions: C57BL/6, mouse, plasma, sc, 0.01 mg/kg
[3] = mouse, in vivo, sc, 0.01 mg/kg, 0.5 h
[4] = Ratio of drug level in brain to plasma in C57BL/6 mouse at 0.03 mg/kg, sc after 30 mins; format: ADME, organism-based; conditions: read-out: BPR
[5] = Fraction unbound in C57BL/6 mouse plasma at 0.03 mg/kg, sc after 30 mins; format: ADME, organism-based; conditions: in vivo, 0.5 h
[6] = Plasma concentration in C57BL/6 mouse at 0.03 mg/kg, sc after 30 mins; format: ADME, organism-based

SMILES | Kp at 0.5 h [1] | concentration at 0.5 h [2] | Cp(f) [3] | Kp at 0.5 h [4] | Cp(f) [5] | concentration at 0.5 h [6]
Brc1ccc2c(NC3=NC[C@@]4(CN5CCC4CC5)O3)ncnn12 | 4.9 | 7 nM | 50 to 75% |  |  | 
Clc1ccc2c(NC3=NC[C@@]4(CN5CCC4CC5)O3)ncnn12 |  |  |  | 1.9 | 50 to 75% | 18 nM

From ChEMBL document CHEMBL3870365, “Development of 4-Heteroarylamino-1'-azaspiro[oxazole-5,3'-bicyclo[2.2.2]octanes] as α7 Nicotinic Receptor Agonists” (ACS Med Chem Lett, 2017)
